PMC7970304, “The Effects of Apelin and Elabela Ligands on Apelin Receptor Distinct Signaling Profiles” (Frontiers in Pharmacology, 2021)
No end group written: not given here.

What was measured:
[1] = system: μ opioid receptor (MOR); conditions: ref Markham, 2020; cited from earlier work
From the text: GPCR ligands were traditionally thought to act equally on all the downstream signaling pathways of the GPCRs, including the multiple signaling pathways mediated by G proteins and β-arrestin.

[2] = biological target: APJ-Renilla luciferase (Rluc) (UniProt P35414)
[3] = biological target: APJ-Venus (UniProt P35414)
[4] = biological target: Apelin receptor (APJ) (UniProt P35414)
[5] = biological target: Apelin receptor (APJ) (UniProt P35414); assay: radioligand binding; competition binding: HEK-293/APJ membrane preparation 20 μg/well, 0.1 nM [125I]-apelin-13, test peptides in 5-fold dilutions starting at 10 µM; 50 mM HEPES pH 7.4, 5 mM MgCl2, 1 mM CaCl2, 0.2% BSA; 30°C, 2 h; Ki calculated from IC50
[6] = biological target: T1, APJ (Apelin receptor) (Homo sapiens, UniProt P35414); assay: Radioligand competition binding assay, [125I]-apelin-13, HEK-293/APJ membranes; parameters: APJ membrane preparations were obtained from transiently transfected HEK293 cells; host or cells: HEK293 cells, transiently transfected; membranes prepared
T1 sequence (P35414 1-380): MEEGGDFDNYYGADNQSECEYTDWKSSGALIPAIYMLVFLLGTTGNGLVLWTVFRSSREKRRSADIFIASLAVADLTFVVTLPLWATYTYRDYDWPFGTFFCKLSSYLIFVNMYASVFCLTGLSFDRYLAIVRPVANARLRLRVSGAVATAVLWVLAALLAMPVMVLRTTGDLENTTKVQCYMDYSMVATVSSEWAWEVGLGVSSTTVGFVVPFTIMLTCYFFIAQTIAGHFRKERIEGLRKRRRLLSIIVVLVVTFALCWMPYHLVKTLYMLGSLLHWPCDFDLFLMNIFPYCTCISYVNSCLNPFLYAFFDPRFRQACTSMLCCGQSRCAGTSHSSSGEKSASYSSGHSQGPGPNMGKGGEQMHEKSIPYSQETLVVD
Experimental: APJ membrane preparations were obtained from transiently transfected HEK293 cells. HEK293 cells were cultured in complete DMEM (DMEM plus 10% FBS) for 24 h, until they reached at least 70% confluence. Transfection reagent containing 20 μg of the APJ expression plasmid was added, and the cells were incubated for another 24 h. The cells were then harvested into 25 ml homogenization buffer (HB) [250 mM sucrose and 25 mM HEPES (pH 7.3); adjusted to pH 7.5 at 4°C and then filtered] supplemented with 250 μL phenylmethylsulfonyl fluoride (PMSF), homogenized using an IKA T25 Ultra Turrax (24,000 rpm), and centrifuged at 6,025 rpm for 15 min at 4°C. […]
The binding reaction was stopped by rapid filtration through polyethyleneimine (PEI)-coated GF/B plates using a cell harvester, and the plates were washed three times with ice-cold wash buffer [50 mM HEPES (pH 7.4), 500 mM NaCl, and 0.1% BSA; filtered and stored at 4°C]. The filtration plates were dried at 37°C for 2 h; 50 μL scintillation cocktail (Perkin Elmer, Wellesley, MA, United States), was added to each well; and the radioactivity was measured using a Perkin Elmer 1450 MicroBeta TriLux Microplate Scintillation and Luminescence Counter.
The binding reaction was stopped, the plates were washed and dried, the scintillation cocktail was added, and the radioactivity was measured as described above.

[7] = system: APJ; conditions: cited from earlier work
From the text: (§1) Elabela (also known as apela or toddler), which has little sequence homology with Apelin, has recently been identified as the second endogenous APJ ligand. […] Elabela is highly expressed during embryogenesis and in adult kidney. Elabela is also derived from a precursor of 54 amino acids.

[8] = system: APJ; parameters: method as in Nyimanu et al., 2019; conditions: ref Nyimanu et al., 2019; cited from earlier work
[9] = system: pulmonary arterial hypertension (PAH); parameters: method as in Yang et al., 2017; conditions: exogenous peptide; ref Yang et al., 2017; cited from earlier work
[10] = system: APJ; conditions: ERK1/2-dependent; ref Perjés et al., 2016; cited from earlier work
From the text: as §1, with “acids. Its 13 C-terminal amino acids are highly conserved among all spe ...” for “acids.”

COc1ccsc1CNCC[C@@]1(c2ccccn2)CCOC2(CCCC2)C1 [oliceridine]
signaling bias at opioid receptor (in words) [1]: selective for G protein pathway, and the effect of β - arrestin recruitment is low

Apelin-17 (peptide)
LogEC50 of the ligand-induced recruitment of GRK2 to APJ (BRET between APJ-Rluc and GRK2-GFP2, HEK293 cells) [2]: -8.19
LogEC50 of the ligand-induced recruitment of GRK5 to APJ (BRET between APJ-Rluc and GRK5-GFP2, HEK293 cells) [2]: -8.58
LogEC50 of the ligand-induced interaction of APJ with β-arrestin 1 (BRET between APJ-Venus and β-arrestin 1-Rluc, HEK293 cells) [3]: -7.9
LogEC50 of the ligand-induced interaction of APJ with β-arrestin 2 (BRET between APJ-Venus and β-arrestin2-Rluc, HEK293 cells) [3]: -8.33
LogEC50 of the ligand-induced interaction between β-arrestin 1 and AP2 (BRET between β-arrestin 1-Rluc and β2-adaptin-EYFP in HEK293 cells co-transfected with APJ, 30 min) [4]: -8.48
LogEC50 of the ligand-induced interaction between β-arrestin 2 and AP2 (BRET between β-arrestin 2-Rluc and β2-adaptin-EYFP in HEK293 cells co-transfected with APJ, 30 min) [4]: -7.17
IC50 [5]: 5.2 nM

LVQPRGSRNGPGPWQGGRRKFRRQRPRLSHKGPMPF [Apelin-36]
Ki [6]: 1.74 nM

Apelin-36-[L28A]: G protein biased APJ agonist (LVQPRGSRNGPGPWQGGRRKFRRQRPRASHKGPMPF; Apelin-36; UniProt Q9ULZ1 42-77, looked up, variant L28A)
signaling bias (in words) ([7]; ref Nyimanu et al., 2019): G protein biased APJ agonists
binding to APJ (in words) [8]: nanomolar affinities

Elabela
APJ signaling (in words) ([7]; ref Peverelli et al., 2014): inhibit cyclic AMP (cAMP) production, activate the extracellular signal-regulated kinases (ERK1/2), and mobilize intracellular calcium through APJ internalization
effect in PAH in rats (in words) [9]: reduce the severity of cardiopulmonary remodeling and function in PAH in rats
cardiac contractility (in words) [10]: increase cardiac contractility in an ERK1/2-dependent manner
